Laboratory results published in ChEMBL document CHEMBL5154747, “Discovery of new carbonic anhydrase IX inhibitors as anticancer agents by toning the hydrophobic and hydrophilic rims of the active site to encounter the dual-tail approach” (Eur J Med Chem, 2022).

Legend:
KM12 = assay: Anticancer activity against human KM12 cells assessed as cell growth inhibition at 10 uM incubated for 48 hrs by SRB assay relative to control; type: functional; conditions: read-out: GI
SNB-19 = assay: Anticancer activity against human SNB-19 cells assessed as cell growth inhibition at 10 uM incubated for 48 hrs by SRB assay relative to control; type: functional; conditions: read-out: GI
UACC-62 = assay: Anticancer activity against human UACC-62 cells assessed as cell growth inhibition at 10 uM incubated for 48 hrs by SRB assay relative to control; type: functional; conditions: read-out: GI
Malme-3M = assay: Anticancer activity against human Malme-3M cells assessed as cell growth inhibition at 10 uM incubated for 48 hrs by SRB assay relative to control; type: functional; conditions: read-out: GI
SK-MEL-5 = assay: Anticancer activity against human SK-MEL-5 cells assessed as cell growth inhibition at 10 uM incubated for 48 hrs by SRB assay relative to control; type: functional; conditions: read-out: GI
CCRF-CEM = assay: Anticancer activity against human CCRF-CEM cells assessed as cell growth inhibition at 10 uM incubated for 48 hrs by SRB assay relative to control; type: functional; conditions: read-out: GI
MCF7 = assay: Anticancer activity against human MCF7 cells assessed as cell growth inhibition at 10 uM incubated for 48 hrs by SRB assay relative to control; type: functional; conditions: read-out: GI
NCI-H460 = assay: Anticancer activity against human NCI-H460 cells assessed as cell growth inhibition at 10 uM incubated for 48 hrs by SRB assay relative to control; type: functional; conditions: read-out: GI
NCI-H322M = assay: Anticancer activity against human NCI-H322M cells assessed as cell growth inhibition at 10 uM incubated for 48 hrs by SRB assay relative to control; type: functional; conditions: read-out: GI
SK-OV-3 = assay: Anticancer activity against human SK-OV-3 cells assessed as cell growth inhibition at 10 uM incubated for 48 hrs by SRB assay relative to control; type: functional; conditions: read-out: GI
HT-29 = assay: Anticancer activity against human HT-29 cells assessed as cell growth inhibition at 10 uM incubated for 48 hrs by SRB assay relative to control; type: functional; conditions: read-out: GI
CAKI-1 = assay: Anticancer activity against human CAKI-1 cells assessed as cell growth inhibition at 10 uM incubated for 48 hrs by SRB assay relative to control; type: functional; conditions: read-out: GI
PC-3 = assay: Anticancer activity against human PC-3 cells assessed as cell growth inhibition at 10 uM incubated for 48 hrs by SRB assay relative to control; type: functional; conditions: read-out: GI
SF-539 = assay: Anticancer activity against human SF-539 cells assessed as cell growth inhibition at 10 uM incubated for 48 hrs by SRB assay relative to control; type: functional; conditions: read-out: GI
A549 = assay: Anticancer activity against human A549 cells assessed as cell growth inhibition at 10 uM incubated for 48 hrs by SRB assay relative to control; type: functional; conditions: read-out: GI
COLO 205 = assay: Anticancer activity against human COLO 205 cells assessed as cell growth inhibition at 10 uM incubated for 48 hrs by SRB assay relative to control; type: functional; conditions: read-out: GI
Hs-578T = assay: Anticancer activity against human Hs-578T cells assessed as cell growth inhibition at 10 uM incubated for 48 hrs by SRB assay relative to control; type: functional; conditions: read-out: GI
EKVX = assay: Anticancer activity against human EKVX cells assessed as cell growth inhibition at 10 uM incubated for 48 hrs by SRB assay relative to control; type: functional; conditions: read-out: GI
OVCAR-8 = assay: Anticancer activity against human OVCAR-8 cells assessed as cell growth inhibition at 10 uM incubated for 48 hrs by SRB assay relative to control; type: functional; conditions: read-out: GI
SK-MEL-2 = assay: Anticancer activity against human SK-MEL-2 cells assessed as cell growth inhibition at 10 uM incubated for 48 hrs by SRB assay relative to control; type: functional; conditions: read-out: GI
HCC 2998 = assay: Anticancer activity against human HCC 2998 cells assessed as cell growth inhibition at 10 uM incubated for 48 hrs by SRB assay relative to control; type: functional; conditions: read-out: GI
UO-31 = assay: Anticancer activity against human UO-31 cells assessed as cell growth inhibition at 10 uM incubated for 48 hrs by SRB assay relative to control; type: functional; conditions: read-out: GI
UACC-257 = assay: Anticancer activity against human UACC-257 cells assessed as cell growth inhibition at 10 uM incubated for 48 hrs by SRB assay relative to control; type: functional; conditions: read-out: GI
Carbonic anhydrase 9 = Carbonic anhydrase 9 (Homo sapiens, UniProt Q16790); assay: Inhibition of recombinant human CA 9 preincubated for 15 mins by phenol red dye based stopped flow CO2 hydration assay
SW-620 = assay: Anticancer activity against human SW-620 cells assessed as cell growth inhibition at 10 uM incubated for 48 hrs by SRB assay relative to control; type: functional; conditions: read-out: GI
T47D = assay: Anticancer activity against human T47D cells assessed as cell growth inhibition at 10 uM incubated for 48 hrs by SRB assay relative to control; type: functional; conditions: read-out: GI
HOP-92 = assay: Anticancer activity against human HOP-92 cells assessed as cell growth inhibition at 10 uM incubated for 48 hrs by SRB assay relative to control; type: functional; conditions: read-out: GI
HOP-62 = assay: Anticancer activity against human HOP-62 cells assessed as cell growth inhibition at 10 uM incubated for 48 hrs by SRB assay relative to control; type: functional; conditions: read-out: GI
NCI-H23 = assay: Anticancer activity against human NCI-H23 cells assessed as cell growth inhibition at 10 uM incubated for 48 hrs by SRB assay relative to control; type: functional; conditions: read-out: GI
SF-295 = assay: Anticancer activity against human SF-295 cells assessed as cell growth inhibition at 10 uM incubated for 48 hrs by SRB assay relative to control; type: functional; conditions: read-out: GI
K562 = assay: Anticancer activity against human K562 cells assessed as cell growth inhibition at 10 uM incubated for 48 hrs by SRB assay relative to control; type: functional; conditions: read-out: GI
RPMI-8226 = assay: Anticancer activity against human RPMI-8226 cells assessed as cell growth inhibition at 10 uM incubated for 48 hrs by SRB assay relative to control; type: functional; conditions: read-out: GI
MDA-MB-435 = assay: Anticancer activity against human MDA-MB-435 cells assessed as cell growth inhibition at 10 uM incubated for 48 hrs by SRB assay relative to control; type: functional; conditions: read-out: GI
U-251 = assay: Anticancer activity against human U-251 cells assessed as cell growth inhibition at 10 uM incubated for 48 hrs by SRB assay relative to control; type: functional; conditions: read-out: GI
MDA-MB-468 = assay: Anticancer activity against human MDA-MB-468 cells assessed as cell growth inhibition at 10 uM incubated for 48 hrs by SRB assay relative to control; type: functional; conditions: read-out: GI
NCI-H226 = assay: Anticancer activity against human NCI-H226 cells assessed as cell growth inhibition at 10 uM incubated for 48 hrs by SRB assay relative to control; type: functional; conditions: read-out: GI
OVCAR-3 = assay: Anticancer activity against human OVCAR-3 cells assessed as cell growth inhibition at 10 uM incubated for 48 hrs by SRB assay relative to control; type: functional; conditions: read-out: GI
NCI-H522 = assay: Anticancer activity against human NCI-H522 cells assessed as cell growth inhibition at 10 uM incubated for 48 hrs by SRB assay relative to control; type: functional; conditions: read-out: GI
DU-145 = assay: Anticancer activity against human DU-145 cells assessed as cell growth inhibition at 10 uM incubated for 48 hrs by SRB assay relative to control; type: functional; conditions: read-out: GI
A498 = assay: Anticancer activity against human A498 cells assessed as cell growth inhibition at 10 uM incubated for 48 hrs by SRB assay relative to control; type: functional; conditions: read-out: GI

Structure (SMILES) | inhibition of growth at 10 µM (KM12) | inhibition of growth at 10 µM (SNB-19) | inhibition of growth at 10 µM (UACC-62) | inhibition of growth at 10 µM (Malme-3M) | inhibition of growth at 10 µM (SK-MEL-5) | inhibition of growth at 10 µM (CCRF-CEM) | inhibition of growth at 10 µM (MCF7) | inhibition of growth at 10 µM (NCI-H460) | inhibition of growth at 10 µM (NCI-H322M) | inhibition of growth at 10 µM (SK-OV-3) | inhibition of growth at 10 µM (HT-29) | inhibition of growth at 10 µM (CAKI-1) | inhibition of growth at 10 µM (PC-3) | inhibition of growth at 10 µM (SF-539) | inhibition of growth at 10 µM (A549) | inhibition of growth at 10 µM (COLO 205) | inhibition of growth at 10 µM (Hs-578T) | inhibition of growth at 10 µM (EKVX) | inhibition of growth at 10 µM (OVCAR-8) | inhibition of growth at 10 µM (SK-MEL-2) | other results
NS(=O)(=O)c1ccc(Nc2nc(N/N=C/c3ccc(F)cc3)nc(Nc3ccccc3)n2)cc1 | 69% | 30% | 39% | 42% | 61% | 80% | 71% | 34% | 41% | 28% | 95% | 43% | 60% | 37% | 92% | 79% | 59% | 37% | 70% | 109% | inhibition of growth at 10 µM (HCC 2998): 44%; inhibition of growth at 10 µM (UO-31): 33%; inhibition of growth at 10 µM (UACC-257): 52%; Ki (Carbonic anhydrase 9): 61.3 nM; inhibition of growth at 10 µM (SW-620): 24%; inhibition of growth at 10 µM (T47D): 79%; inhibition of growth at 10 µM (HOP-92): 36%; inhibition of growth at 10 µM (HOP-62): 82%; inhibition of growth at 10 µM (NCI-H23): 45%; inhibition of growth at 10 µM (SF-295): 29%; inhibition of growth at 10 µM (K562): 45%; inhibition of growth at 10 µM (RPMI-8226): 49%; inhibition of growth at 10 µM (MDA-MB-435): 46%; inhibition of growth at 10 µM (U-251): 88%; inhibition of growth at 10 µM (MDA-MB-468): 45%; inhibition of growth at 10 µM (NCI-H226): 49%; inhibition of growth at 10 µM (OVCAR-3): 69%; inhibition of growth at 10 µM (NCI-H522): 84%; inhibition of growth at 10 µM (DU-145): 68%
NNc1nc(Nc2ccccc2)nc(Nc2ccc(S(N)(=O)=O)cc2)n1 | < 10% | < 10% | < 10% | < 10% | < 10% | < 10% | < 10% | < 10% | < 10% | < 10% | < 10% | < 10% | < 10% | < 10% | < 10% | < 10% | < 10% | < 10% | < 10% | < 10% | inhibition of growth at 10 µM (HCC 2998): < 10%; inhibition of growth at 10 µM (UO-31): 13%; inhibition of growth at 10 µM (UACC-257): < 10%; inhibition of growth at 10 µM (SW-620): < 10%; inhibition of growth at 10 µM (T47D): < 10%; inhibition of growth at 10 µM (HOP-92): < 10%; inhibition of growth at 10 µM (A498): < 10%; inhibition of growth at 10 µM (HOP-62): < 10%; inhibition of growth at 10 µM (NCI-H23): < 10%; inhibition of growth at 10 µM (SF-295): < 10%; inhibition of growth at 10 µM (K562): < 10%; inhibition of growth at 10 µM (RPMI-8226): < 10%; inhibition of growth at 10 µM (MDA-MB-435): < 10%; inhibition of growth at 10 µM (U-251): < 10%; inhibition of growth at 10 µM (MDA-MB-468): < 10%; inhibition of growth at 10 µM (NCI-H226): < 10%; inhibition of growth at 10 µM (OVCAR-3): < 10%; inhibition of growth at 10 µM (NCI-H522): < 10%; inhibition of growth at 10 µM (DU-145): < 10%
